The record followed here is US20210322509A1, “Methods for Reducing Perinatal Morbidity and / or Mortality” (CHU SAINTE-JUSTINE, priority 2016, published 2021).

The test system of series [1] is IL-1β, IL-6, IL-8 and PGF2α in neonatal intestines. The series is described as follows: ELISA of pro-inflammatory mediators in intestines of neonates. It is filed as in vivo, mice. Particulars: neonates from IL-1β-treated dams; for levels of gut IL-6: relative to control. As for the experimental part: FIGS. 5A to 5D show the levels of the pro-inflammatory mediators IL-1p (FIG. 5A), IL-6 (FIG. 5B), IL-8 (FIG. 5C) and PGF2a (FIG. 5D) in the intestines of neonates from sham and IL-1β-treated dams administered with vehicle, Compound 1 or Kineret, as assessed by ELISA. One-way ANOVA compared to IL-1β+Veh. *p<0.05. n=4 pups in each groups.
(§1) Murine ELISA assays. The ELISA assay was performed using mouse Quantikine™ ELISA kits against IL-1β or IL-6 (R&D Systems®; #MLBOOC, M6000B), IL-8 and PGF2α (MyBioSource®; #MBS261967, #MBS264160) according to the manufacturer's instructions. Briefly, tissues (lungs, intestines and brains) collected at birth were homogenized in RIPA buffer containing proteases and 50 μL of either lung, intestine, or brain samples, recombinant mouse IL-1β, IL-6, IL-8 or PGF2α positive control or decreasing concentrations of a recombinant mouse IL-1β, IL-6, IL-8 or PGF2α standard were loaded into a 96-well plate pre-coated with a monoclonal anti-mouse IL-1β antibody and incubated for 2 hours at ambient temperature. Wells were washed 5 times and incubated with an enzyme-linked mouse polyclonal antibody specific to murine IL-1β for 2 hours. After another washing step, a substrate solution was added. The enzymatic reaction was stopped after 30 minutes and the plate was read at 450 nm, with wavelength correction set to 570 nm.
(An ELISA detects its analyte on a solid surface through an enzyme-linked reagent.)

For series [2], the system named is IL-1β, IL-6, IL-8 and PGF2α in neonatal lungs. The series is described as follows: ELISA of pro-inflammatory mediators in lungs of neonates. It counts as in vivo, mice. Conditions: neonates from IL-1β-treated dams; tissue collected at birth. As for the experimental part:
FIGS. 3A to 3D show the levels of the pro-inflammatory mediators IL-1p (FIG. 3A), IL-6 (FIG. 3B), IL-8 (FIG. 3C) and PGF2a (FIG. 3D) in the lungs of neonates from sham and IL-1β-treated dams administered with vehicle, Compound 1 or Kineret, as assessed by ELISA. One-way ANOVA compared to IL-1β+Veh. *p<0.05, **p<0.01. n=4 pups in each groups.
as §1

Series [3] has as its system IL-1β, IL-6, IL-8 and PGF2α in fetal brain tissue. The series is described as follows: ELISA of pro-inflammatory mediators in brain of neonates. It counts as in vivo, mice. Conditions: neonates from IL-1β-treated dams. The method, then:
FIGS. 8A to 8D show the levels of the pro-inflammatory mediators IL-1β (FIG. 8A), IL-6 (FIG. 8B), IL-8 (FIG. 8C) and PGF2a (FIG. 8D) in fetal brain tissue of neonates from sham and IL-1β-treated dams administered with vehicle, Compound 1 or Kineret, as assessed by ELISA. One-way ANOVA compared to IL-1β+Veh. *p<0.05, **p<0.01, ***p<0.001. n=4 pups in each groups.
as §1

In series [4] the test system is Il1a, Il1b, Il6 and Tnfa mRNA in fetal head. As to the kind of experiment: LPS-induced cytokine gene expression in fetal brain (qPCR). It is filed as in vivo, C57Bl/6 mice. The method, then:
FIGS. 10A to 10D show the induction of pro-inflammatory cytokines in fetal brain after maternal LPS administration is suppressed by compound 2 (cmpd2) in mice. C57Bl/6 mice were mated to males of the same genotype, administered LPS with or without compound 2 and fetal head were recovered. Relative expression of Il1a (FIG. 10A), IL6 (FIG. 10B), TNF (FIG. 10C) and IL1B (FIG. 10D) mRNAs were determined in each tissue by qPCR and normalized to Actb. Data are shown as mean±SEM relative gene expression in tissue pooled from two implantation sites with n=6 dams/group. The effect of LPS and compound 2 was analyzed by Kruskal-Wallis and Mann-Whitney U-test. #* indicates significant differences between groups, p<0.05.
Animal and treatments. To analyze effects of compound 2 on LPS-induced cytokine expression in the fetal brain after inflammatory stimulus mimicking infection in utero, pregnant female C57Bl/6 female mice (mated with C57Bl/6 males) were injected with 0.5 μg lipopolysaccharide (LPS; Salmonella typhimurium; Sigma-Aldrich®, St. Louis, Mo., USA) in 200 μl PBS i.p., or PBS control, at 1100 h on gd 16.5. Mice were immediately administered compound 2 (1 mg/kg in PBS) or vehicle control (PBS+0.1% BSA) within 5 mins of LPS injection on gd 16.5, then killed 4 h later. Brain tissues were recovered by severing the fetal head from 2 fetuses from each of […] per treatment group.
Expression of inflammatory markers. Messenger RNA (mRNA) was extracted by homogenizing tissues using ceramic beads (Mo Bio) in Trizol® (Ambion® RNA, Carlsbad Calif.). […] Primer pairs specific for published cDNA sequences were designed using Primer Express® software (Applied Biosystems®, Foster City, Calif.) to quantify Il1a, Il1b, Il6 and Tnfa mRNA. […] Data were normalized to β-actin mRNA expression and expressed as ΔΔCT using the formula mRNA level=[…]. […] Data were tested for normality using a Shapiro-Wilk test then analyzed by Kruskal-Wallis and Mann-Whitney U-test since data were not normally distributed. […]

Series [5] has as its system pups from IL-1β-treated dams. As to the kind of experiment: Behavioral test (spontaneous open field activity). It counts as in vivo, mice. Particulars: PT15.
Protocol: Behavioral test (Spontaneous openfield activity). Each animal (PND15 and PND28) was gently placed in the center of the openfield, allowed to freely explore undisturbed for 10 min, after which the animal was removed, the arena cleaned with 70% ethanol and dried prior to testing the next animal. Locomotor activity was indexed as the total distance travelled (cm). The evaluator was blinded to the groups. All movements were monitored and quantified using Smart software.

Non-standard residues stand in square brackets, D forms with d. Residues, ends and D or L forms follow the SMILES beside them. ξ: configuration not given here. dThr(3ξ) = CC(O)[C@@H](N)C(=O)O

“Kineret: recombinant form of the human interleukin-1 receptor antagonist (IL-1Ra), purchased from Swedish Orphan Biovitrum AB”: the “levels of gut IL-6” value in series [1] is listed as “not observed”. Besides, in series [2], the “levels of all cytokines tested (IL-1β, IL-6, IL-8, PGF2α) in neonatal lungs” value is “only effective at significantly decreasing lung IL-1β levels”. Also, in series [3], the “increased IL-1β and IL-6 levels in the brain” value is “ineffective at significantly reducing”; the “increased IL-8 levels in the brain” value was “although significant, was weaker than that obtained with compound 1”.
Regarding `CC(C)C[C@@H](NC(=O)[C@@H](CCC(=O)O)NC(=O)[C@H](NC(=O)[C@H](NC(=O)[C@@H](Cc1ccc(O)cc1)NC(=O)[C@H](N)CCCNC(=N)N)C(C)O)C(C)C)C(=O)N[C@H](C)C(=O)O` (stereo partly drawn) [compound 2] (H-[dR][dY][dThr(3ξ)][dV][dE][dL][dA]-OH), the “expression of Il1a, Il1b and Il6 in fetal head relative to PBS control” value in series [4] (LPS + compound 2) is “no change”; in series [4] (compound 2 alone (no LPS)), “did not significantly alter”. Also, in series [4] (dams given LPS 0.5 μg i.p. gd 16.5 + compound 2 1 mg/kg, 4 h later), the “expression of Il1a, IL6, TNF and IL1B in fetal head, reduction relative to LPS alone” value is given as 40-60%.
With `CC(C)C[C@@H](NC(=O)[C@@H](CCC(=O)O)NC(=O)[C@H](NC(=O)[C@H](NC(=O)[C@@H](Cc1ccc(O)cc1)NC(=O)[C@H](N)CCCNC(=N)N)C(C)O)C(C)C)C(=O)N[C@H](C)C(N)=O` (stereo partly drawn) [compound 1] (H-[dR][dY][dThr(3ξ)][dV][dE][dL][dA]-NH2), in series [1], the “increased IL-1β and IL-8 in neonatal intestines” value is “alleviated this effect”; the “levels of gut IL-6” value is “clear trend toward decreased levels”. In series [5], the “behavior/locomotion activity (distance travelled, open field)” value was “normalization of the behavior/locomotion activity”. Also, in series [2], the “levels of all cytokines tested (IL-1β, IL-6, IL-8, PGF2α) in neonatal lungs” value is given as “significant reduction”. Further, in series [3], the “increased IL-1β and IL-6 levels in the brain” value was “alleviated this effect”; the “increased IL-8 levels in the brain” value was “alleviated this effect”.
